From paper PMC12518634, “The noncanonical function of liver-type phosphofructokinase potentiates the efficacy of HDAC inhibitors in cancer” (Signal Transduction and Targeted Therapy, 2025)
Structures can show the parent of a compound that is named as a salt. Where two headings read alike, the source gives them in different places.

Legend:
783C-6 = assay: High-throughput drug screen, CellTiter-Glo viability, 72 h; format: cell-based, human; design: AUC: scale not given here; conditions: for DSS: DSS of DSRT analysis; for AUC: area under the dose-response curve; for MIN: minimum of dose-response curve; for SLOPE: slope of fitted dose-response curve; for EC50: 72 h, read-out: EC50
In short: (§1)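 Cholangiocarcinoma cells were seeded at 3000/well in 384-well plates and dosed after 24 h. Drugs were tested at 10, 1, 0.1, 0.01 and 0.001 μM in duplicate for 72 h, with viability read by CellTiter-Glo luminescence.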

1405R3 = assay: as above; format: cell-based, human; design: AUC: scale not given here; conditions: for AUC: area under the dose-response curve; for MIN: lower asymptote of fitted dose-response curve; for SLOPE: slope of fitted dose-response curve; for EC50: CellTiter-Glo viability, 72 h, fitted dose-response curve, Min.Conc.tested 1, Max.Conc.tested 10000, GI50, read-out: EC50
In short: as §1

[1] = 1405R3 DSRT analysis, drug sensitivity score
[2] = 783C-6 cells, DSRT analysis, CellTiter-Glo viability, concentrations tested 1 to 10000 (unit inferred), GI50
[3] = Homo sapiens, 1405R3 DSRT analysis

Structure (SMILES)	DSS (783C-6; 783C-6 cells)	AUC (783C-6; 783C-6 cells)	MIN (783C-6; 783C-6 cells)	SLOPE (783C-6; 783C-6 cells)	AUC (1405R3; 1405R3 DSRT analysis)	DSS (1405R3; [1])	MIN (1405R3; 1405R3 DSRT analysis)	SLOPE (1405R3; 1405R3 DSRT analysis)	EC50 (783C-6; [2])	EC50 (1405R3; 1405R3 DSRT analysis)	EC50 (783C-6; Homo sapiens)	EC50 (1405R3; [3])	DSS (1405R3)
CCCCCCCCCCCCCCCCNNC(=O)c1cccs1 [SIS17]	0	4.7	84.4	-1	24.4	0	84.3	-0.1					
COc1ccc(N(C)c2nc(C)nc3ccccc23)cc1OCCCC(=O)NO [SKLB-23bb]	13.8	111	50	-2.5	79.5	8.2	33.2	-0.8	0.0602 µM	0.731 µM			
O=C1NC(=O)/C(=C/c2cccc(C(F)(F)F)c2)S1 [SMI-4a]	0	2.1	96.8	-2.5	0.1	0	99.6	-1.3					
CCCOc1ccc(/C=C2\SC(=O)NC2=O)cc1 [SMI-16a]	0	5.7	91.3	-0.5	0.1	0	100	-0.1					
C/C(=N\NC(=O)c1cccc(S(=O)(=O)N2CCOCC2)c1)c1cc(Cl)ccc1O [SP2509]	4.9	43.2	35	-2.5	31.9	3.1	61	-1.6	2.18 µM	1.57 µM			
CCCCNNC(=O)c1ccc(-c2cccc(F)c2F)cc1 [SR-4370]	6.1	54.2	7.5	-2.5	63.7	7.2	6.9	-2.5	2.63 µM	2.08 µM			
CCOC(=O)NCCCC(=O)NCCc1ccccc1 [Santacruzamate A]	0	2.2	94.7	-0.7	1	0	92	-2.5					
O=C(CCCCCN1C(=O)c2cccc3cccc(c23)C1=O)NO [Scriptaid]	8.6	74.4	3.2		77.8	9	11.5				1.71 µM	1.33 µM	
NC(=O)C1CCCc2c1[nH]c1ccc(Cl)cc21 (stereo not drawn) [Selisistat]	0	11.9	93.6	-0.1	1	0	97.8	-0.6					
O=C(O)CCCc1ccccc1 [Sodium Phenylbutyrate]	0	15	91.2		9.3	0	90.9						
CCCC(=O)[O-].[Na+] [Sodium butyrate]	0	0.1	100	-0.1	0.1	0	100	-0.1					
CNC(=O)c1cc(Oc2ccc(NC(=O)Nc3ccc(Cl)c(C(F)(F)F)c3)cc2)ccn1 [Sorafenib Tosylate]	3.4	31.4			36.2	3.8	14				2.19 µM	3.94 µM	
O=C1CCc2c(ccc3ccccc23)O1 [Splitomicin]	0	7.8	95		3.1	0	95.1						
O=C(CCCCCCC(=O)NO)NO [Suberohydroxamic acid]	0	1.4	95.2		0.5	0	98						
Cl.Cn1cc(C(=O)Nc2ccc([C@@H]3C[C@H]3NCC3CC3)cc2)cn1 [T-3775440 HCl]	0	15	90.4	-0.1	0.3	0	97.3	-2.5					
C=CC(=O)N1CC[C@H](n2nc(C#Cc3cc(OC)cc(OC)c3)c3c(N)ncnc32)C1 [TAS-120]	0	1.7	94.4		7.2	0	91.3						

Structure (SMILES)	DSS (783C-6; 783C-6 cells)	AUC (783C-6; 783C-6 cells)	MIN (783C-6; 783C-6 cells)	SLOPE (783C-6; 783C-6 cells)	AUC (1405R3; 1405R3 DSRT analysis)	DSS (1405R3; [1])	MIN (1405R3; 1405R3 DSRT analysis)	SLOPE (1405R3; 1405R3 DSRT analysis)	EC50 (783C-6; [2])	EC50 (1405R3; 1405R3 DSRT analysis)	EC50 (783C-6; Homo sapiens)	EC50 (1405R3; [3])	DSS (1405R3)
N#Cc1c(-c2ccccc2)cc(-c2cc(Br)ccc2O)[nH]c1=O [TCS PIM-1 1]	0	5.4	92.2	-0.4	2.3	0	96.8	-0.4					
CC(C)(CNC(=O)c1cccc(-c2noc(C(F)(F)F)n2)c1)c1coc(-c2ccccc2)n1 [TMP195]	0	1.4	96	-0.9	1.1	0	97.2	-0.8					
O=C(NCC1(c2nc(-c3ccccc3)cs2)CCOCC1)c1cccc(-c2noc(C(F)(F)F)n2)c1 [TMP269]	2.5	50.1	84.2	-0.3	24.8	0	87	-0.2					
CC(=O)Nc1ccc(C(=O)Nc2ccccc2N)cc1 [Tacedinaline]	0.3	7.5	82.2		9.7	0.6	76.8						
COc1cccc2c1c(O)c(C(=O)N(C)c1ccc(C(F)(F)F)cc1)c(=O)n2C [Tasquinimod]	0	1.7	96		0.1	0	100						
CCN(c1cc(-c2ccc(CN3CCOCC3)cc2)cc(C(=O)NCc2c(C)cc(C)[nH]c2=O)c1C)C1CCOCC1 [Tazemetostat]	0	14.4	90.7		12.2	0	92.1						
CCCCCCCCCCCCCC(=S)NCCCC[C@H](NC(=O)OCc1ccccc1)C(=O)Nc1ccccc1 [Thiomyristoyl]	0	2.1	92.9	-1	18.7	0	87.9	-0.1					
Cn1c(CCCCCCC(=O)NO)nc2cc(N(CCCl)CCCl)ccc21 [Tinostamustine]	7.1	62.6	3.7		56	6.3	10				2.26 µM	2.42 µM	
Cc1cc(Nc2cc(N3CCN(C)CC3)nc(Sc3ccc(NC(=O)C4CC4)cc3)n2)[nH]n1 [Tozasertib]	4.1	41.4	78.1		19.9		76.4						1.8
O=C(CCCCCCC(=O)Nc1ccc([C@H]2O[C@@H](CSc3nc(-c4ccccc4)c(-c4ccccc4)o3)C[C@@H](c3ccc(CO)cc3)O2)cc1)NO [Tubacin]	0	7.2	76.2		41.9	0	73.1						
CN1CCc2c(c3ccccc3n2Cc2ccc(C(=O)NO)cc2)C1.Cl [Tubastatin A HCl]	0	2.4	92.1	-1	3.3	0	94.8	-0.5					
CN1CCc2c(c3ccccc3n2Cc2ccc(C(=O)NO)cc2)C1.O=C(O)C(F)(F)F [Tubastatin A TFA]	0	24.4	86.5	-0.1	17.4	0	88.8	-0.1					
CN1CCc2c(c3ccccc3n2Cc2ccc(C(=O)NO)cc2)C1 [Tubastatin A]	0	3.2	92.9		8.2	0	92.6						
Nc1cc(F)ccc1NC(=O)c1ccc(CNC(=O)/C=C/c2cccnc2)cc1 [Tucidinostat]	6.5	59.3	25.1		73.3	7	44				1.66 µM	0.607 µM	
CCCCNNC(=O)c1ccc(Br)cc1 [UF010]	2.1	22.5	74.9	-2.4	21.1	2	67.1	-2.5	1.28 µM	2.32 µM			
COc1cc2nc(N3CCCC3)nc(NCCCCCN3CCCC3)c2cc1OC [UNC0379]	3.2	30.1	55.3	-2.5	39.7	1.9	76.2	-0.4					
